The source of these data is patent US5541163A, “Renin inhibiting N-(2-amino-2-oxoethyl)butanediamide derivatives” (Bio-Mega/Boehringer Ingelheim Research Inc., priority 1993, dated 1996).

SMILES strings stand for the structures. pIC50: −log10 of the molar value.

The pIC50 is −log10 of the IC50, conventionally taken in molar units. Read a high pIC50 as a small IC50.

In this assay the target is T1, human renin (Homo sapiens, UniProt P00797).
T1 construct: A human plasma pool is used as the source of both the substrate (angiotensinogen) and the enzyme (renin); from tissue; host or cells: human plasma pool
T1 sequence (P00797 67-406): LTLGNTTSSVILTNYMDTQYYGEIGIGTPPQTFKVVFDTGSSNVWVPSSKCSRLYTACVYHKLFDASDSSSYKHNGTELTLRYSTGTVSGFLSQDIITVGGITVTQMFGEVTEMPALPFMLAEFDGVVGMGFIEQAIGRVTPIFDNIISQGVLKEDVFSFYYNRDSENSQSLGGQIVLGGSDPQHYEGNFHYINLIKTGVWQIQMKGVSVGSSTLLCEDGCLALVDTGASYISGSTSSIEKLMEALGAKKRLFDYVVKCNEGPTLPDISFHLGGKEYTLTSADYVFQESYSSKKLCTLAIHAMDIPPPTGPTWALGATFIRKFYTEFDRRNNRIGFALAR
As to the kind of experiment: Plasma renin assay (inhibition of human renin, angiotensin I by RIA). In kind it is biochemical. The following applies: human plasma pool, pH 6.0, 2 h incubation at 37°. The gist of the method: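 Pooled human plasma supplies both renin and angiotensinogen; inhibitor in MES/1% HSA buffer (1% DMSO final) incubated 2 h at 37° at pH 6.0. Angiotensin I generated quantified by radioimmunoassay, inhibition relative to no-inhibitor control, IC50 by nonlinear regression.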
`CC(C)C[C@H](O)[C@H](O)[C@H](CC1CCCCC1)NC(=O)[C@@H](CC(=O)N(CCc1ccccn1)CC(=O)N(C)C)CC1CC1` [Compound 51, N^4-[2-(dimethylamino)-2-oxoethyl]-N^4-[2-(2-pyridinyl)ethyl]-N^1-(1(S)-(cyclohexylmethyl)-2(R),3(S)-dihydroxy-5-methylhexyl]-2(R)-(cyclopropylmethyl)butanediamide] gave a pIC50 of 6.84.
`CC(C)C[C@H](O)[C@H](O)[C@H](CC1CCCCC1)NC(=O)[C@@H](CC(=O)N(CC(=O)N(C)C)Cc1ccccc1)Cc1csc(N)n1` [Compound 52, N^4-benzyl-N^1-[2-(dimethylamino)-2-oxoethyl)-N^1-[1(S)-(cyclohexylmethyl)-2(R),3(S)-dihydroxy-5-methylhexyl]-2(R)-[(2-amino-4-thiazolyl)-methyl]butanediamide] showed a pIC50 of 8.52. This pIC50 lies 1.68 log units higher than the previous one.
Regarding `CC(C)C[C@H](O)[C@H](O)[C@H](CC1CCCCC1)NC(=O)[C@@H](CC(=O)N(CC(=O)N(C)CCc1ccccn1)Cc1ccccc1)Cc1cscn1` [Compound 53, N^4-benzyl-N^4 -{2-{methyl[2-(2-pyridinyl)ethyl]amino}-2-oxoethyl}-N^1-[1(S)-(cyclohexylmethyl)-2(R),3(S)-dihydroxy-5-methylhexyl]-2(R)-(4-thiazolylmethyl)butanediamide], the pIC50 was 8.60.
In turn, `CC(C)C[C@H](O)[C@H](O)[C@H](CC1CCCCC1)NC(=O)[C@@H](CC(=O)N(CC(=O)N(C)C)[C@@H](C)c1ccccc1)Cc1nccs1` [Compound 54, N^4-[2-(dimethylamino)-2-oxoethyl]-N^4-[1(S)-phenylethyl]-N^1-[1(S)-(cyclohexylmethyl)-2(R),3(S)-dihydroxy-5-methylhexyl]-2(S)-(2-thiazolylmethyl)butanediamide] had a pIC50 of 8.40.
As to `CC(C)C[C@H](O)[C@H](O)[C@H](CC1CCCCC1)NC(=O)[C@@H](CC(=O)N(CC(=O)N(C)C)CC1CCCCC1)Cc1ccccc1` [Compound 55, N^4-(cyclohexylmethyl)-N^4-[2-(dimethylamino)-2-oxoethyl]-N^1-[1(S)-(cyclohexylmethyl)-2(R),3(S)-dihydroxy-5-methylhexyl]-2(R)-(phenylmethyl)butanediamide], the negative logarithm of the IC50 (pIC50) is 7.80. This pIC50 lies 0.60 log units lower than the previous one.
The molecule `CC(C)C[C@H](O)[C@H](O)[C@H](CC1CCCCC1)NC(=O)[C@@H](CC(=O)N(CC(=O)N(C)CCc1ccccn1)Cc1ccccc1)Cc1csc(N)n1` [Compound 57, N^4-benzyl-N^4 -{2-{methyl[2-(2-pyridinyl)ethyl]amino}-2-oxoethyl}-N^1-[1(S)-(cyclohexylmethyl)-2(R),3(S)-dihydroxy-5-methylhexyl]-2(R)-[(2-amino-4-thiazolyl)methyl]-butanediamide] had a pIC50 of 9.00.
On to `CC(C)C[C@H](O)[C@H](O)[C@H](CC1CCCCC1)NC(=O)[C@@H](CC(=O)N(CC(=O)N(C)C)CC1CCCCC1)Cc1cccnc1` [Compound 58, N^4-(cyclohexylmethyl)-N^4-[2-(dimethylamino)-2-oxoethyl]-N^1-[1(S)-(cyclohexylmethyl)-2(R),3(S)-dihydroxy-5-methylhexyl]-2(R)-(3-pyridinylmethyl)butanediamide], for which the pIC50 was 8.00. This pIC50 is 1.00 log units lower than that of the molecule before.
The molecule `CC(C)C[C@H](O)[C@H](O)[C@H](CC1CCCCC1)NC(=O)[C@@H](CC(=O)N(CC(=O)N1CCOCC1)CC1CCCCC1)Cc1cccnc1` [Compound 59, N^4-(cyclohexylmethyl)-N^4-(2-morpholino-2-oxoethyl)-N^1-[1(S)-(cyclohexylmethyl)-2(R),3(S)-dihydroxy-5-methylhexyl]-2(R)-(3-pyridinylmethyl)butanediamide] showed a pIC50 of 8.00.
`CC(C)C[C@H](O)[C@H](O)[C@H](CC1CCCCC1)NC(=O)[C@@H](CC(=O)N(CCc1ccccc1)CC(=O)N(C)C)Cc1csc(N)n1` [Compound 60, N^4-[2-(dimethylamino)-2-oxoethyl]-N^4-(2-phenylethyl)-N^1-[1(S)-(cyclohexylmethyl)-2(R),3(S)-dihydroxy-5-methylhexyl]-2(R)-[(2-amino-4-thiazolyl)methyl]butanediamide] showed a pIC50 of 8.30.
